Experimental data published in paper PMC9405973, “Altered Conformational Landscape upon Sensing Guanine Nucleotides in a Disease Mutant of Elongation Factor-like 1 (EFL1) GTPase” (Biomolecules, 2022).
“And” between values parts separate entries of the source, which are not always exact repeats. Equal values may be shown once. Read-outs that look alike come from different tables or passages of the source.

How the values were obtained:
wild-type Efl1 = conditions: cited from earlier work; for -TΔSb / Kd / ΔGb / ΔHb / ΔCpb: guanine nucleotide
Efl1 R1086Q•Sdo1 = target: T1, Efl1 R1086Q•Sdo1 (Saccharomyces cerevisiae, UniProt P53893, R1086Q); test: ITC: binding of guanine nucleotides to pre-formed complex Efl1 R1086Q•Sdo1; conditions: for ΔCpb: from ΔHb at 25–35 °C; for -TΔs / Δg / Δh / κ (heterotropic cooperativity): Effect of Mg^2+
T1 construct: made in house; host or cells: Efl1: Saccharomyces cerevisiae; Sdo1: Escherichia coli C41
T1 sequence (P53893 whole entry R1086Q): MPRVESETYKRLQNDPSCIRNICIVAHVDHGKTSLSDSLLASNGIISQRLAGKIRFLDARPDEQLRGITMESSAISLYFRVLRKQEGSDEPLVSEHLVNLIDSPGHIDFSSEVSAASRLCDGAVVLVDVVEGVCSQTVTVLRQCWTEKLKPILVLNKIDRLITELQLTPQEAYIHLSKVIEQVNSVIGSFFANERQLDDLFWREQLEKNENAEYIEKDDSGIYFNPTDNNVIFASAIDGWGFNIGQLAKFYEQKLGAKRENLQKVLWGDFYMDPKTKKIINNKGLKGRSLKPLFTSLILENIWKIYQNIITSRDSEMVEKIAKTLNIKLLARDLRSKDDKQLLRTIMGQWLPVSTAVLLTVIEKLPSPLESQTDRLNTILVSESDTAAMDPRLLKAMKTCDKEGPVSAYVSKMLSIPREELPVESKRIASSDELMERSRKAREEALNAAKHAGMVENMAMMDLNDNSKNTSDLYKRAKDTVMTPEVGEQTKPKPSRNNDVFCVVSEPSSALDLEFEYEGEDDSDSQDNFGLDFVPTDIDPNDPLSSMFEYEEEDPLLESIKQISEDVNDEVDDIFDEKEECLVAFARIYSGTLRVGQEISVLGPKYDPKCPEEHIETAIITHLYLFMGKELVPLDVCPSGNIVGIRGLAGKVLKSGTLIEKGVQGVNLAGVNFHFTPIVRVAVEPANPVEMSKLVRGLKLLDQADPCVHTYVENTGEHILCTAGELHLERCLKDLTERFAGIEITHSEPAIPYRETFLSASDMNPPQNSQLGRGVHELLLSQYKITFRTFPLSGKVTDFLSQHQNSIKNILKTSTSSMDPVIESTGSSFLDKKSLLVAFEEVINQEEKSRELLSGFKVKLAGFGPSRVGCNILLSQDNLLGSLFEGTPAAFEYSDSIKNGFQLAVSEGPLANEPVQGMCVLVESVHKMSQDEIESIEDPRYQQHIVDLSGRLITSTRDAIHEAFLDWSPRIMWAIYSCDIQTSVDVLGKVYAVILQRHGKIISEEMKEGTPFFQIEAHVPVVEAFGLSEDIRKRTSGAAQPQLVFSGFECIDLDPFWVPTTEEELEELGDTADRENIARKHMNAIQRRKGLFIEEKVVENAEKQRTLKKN
T1 sequence (Q07953 whole entry, further chain): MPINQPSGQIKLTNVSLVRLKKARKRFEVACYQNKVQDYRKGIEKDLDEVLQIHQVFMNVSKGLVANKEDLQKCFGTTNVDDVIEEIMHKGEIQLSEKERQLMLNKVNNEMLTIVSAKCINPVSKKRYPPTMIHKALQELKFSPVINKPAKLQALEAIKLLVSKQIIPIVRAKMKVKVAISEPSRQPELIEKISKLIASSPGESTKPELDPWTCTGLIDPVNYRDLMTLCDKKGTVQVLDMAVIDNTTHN
Procedure: All calorimetric measurements were carried out using MicroCal^TM iTC200 System (GE Healthcare, Northampton, MA, USA) in a temperature range of 25–35 °C. Experiments were performed in a buffer consisting of 50 mM Tris-HCl (pH 8.0), 150 mM NaCl, 100 µM DTT, and 5% glycerol. In the titrations with Mg^2+-bound nucleotides, both the ligand and protein solutions contained 5 mM MgCl2. In the case of titrations with Mg^2+-free nucleotide, both the ligand and protein solutions were supplemented with 2 mM EDTA to sequester any residual trace of metal ions in solution. Protein samples and ligands were prepared in the exact same buffer prior to each titration. Protein concentration in the cell comprised 30–50 µM GTPase, while the ligand concentration in the syringe was 2–3 mM for GTP, MgGTP, GDP, and MgGDP. To ensure measuring the interaction of the complex Efl1 R1086Q•Sdo1 with the nucleotide, an eight-fold concentration excess of Sdo1 was used compared with that of the enzyme. […] The titration schedule consisted of 15–20 consecutive injections of the ligand with 5 min intervals between injections and a stirring rate of 700 rpm. The dilution heat of the ligand was obtained by adding the ligand to a buffer solution under identical conditions and with the same injection schedule used for the protein sample. All samples were degassed for 10 min prior to the experiment.
The binding isotherms obtained for the isolated GTPase in the presence of Mg(II) were analysed using a ternary model in which the protein can bind to the free nucleotide (G(D)TP) or that bound to one magnesium ion (MgG(D)TP); additionally, GTP may also exist in the form of Mg2GTP, which is not recognised by the protein. The derivation of this coupled-equilibria model can be reviewed in [6, 31]. The binding constant (Kb), the enthalpy change (∆Hb), and the stoichiometry (n) were obtained with the non-linear routines implemented in Origin 5.0 (OriginLab, Co., Northampton, MA, USA) using a one-binding-site model as described in [32, 33]. The heterotropic cooperativity for the binding of guanine nucleotides and Sdo1 to Efl1 R1086Q were calculated as previously described in [6, 32]. The cooperative effects of Mg(II) on the binding of guanine nucleotides to Efl1 R1086Q alone and bound to Sdo1 were calculated as follows:κ = KE-MG/KE-G κ = KES-MG/KES-G Δh = ΔHE-MG − ΔHE-G Δh = ΔHES-MG − ΔHES-G where subscripts E-MG and E-G stand for the association of the metal-bound and metal-free guanine nucleotide with mutant Efl1, respectively. Corresponding expressions applied to the heterotropic cooperativity of the binding of nucleotides to the preformed complex, Efl1•Sdo1 (ES).
The impact of Sdo1 on the binding of Efl1 R1086Q to guanine nucleotides in the presence of magnesium ions is contained in KES-MG and ΔHES-MG relative to the KE-S and ΔHE-S values; analogous ratios report the effects in the absence of Mg(II):κ = KES-MG/KE-S κ = KES-G/KE-G Δh = ΔHES-MG − ΔHE-S Δh = ΔHES-G − ΔHE-G
The corresponding cooperative entropy change was calculated as:TΔs = Δh − Δg = Δh + RTlnκ
The detailed methodology and equations to compute the changes in the accessible surface area (∆ASA) of the GTPase upon binding to nucleotides and the ∆S energetic-based parameters are reported in [6]. Briefly, the water-accessible areas (ASAs) were computed using programme NACCESS, while the changes in accessible surface area (ΔASA) upon the formation of each GTPase–nucleotide complex were estimated considering the difference between the complex and the sum of the free interacting partners. The calculated polar (ΔASAp) and apolar (ΔASAap) area changes were subsequently used to estimate the free molecular partners. […]

[1] = Effect of Mg^2+, wild-type Efl1 − Sdo1, 30 °C
[2] = Effect of Sdo1, wild-type Efl1 − Mg^2+, 30 °C

## Nc1nc2c(ncn2[C@@H]2O[C@H](COP(=O)(O)OP(=O)(O)OP(=O)(O)O)[C@@H](O)[C@H]2O)c(=O)[nH]1 [GTP]
wild-type Efl1; [1]
  -TΔs: -1.3 kcal/mol
  Δg: -0.4 kcal/mol
  Δh: 0.9 kcal/mol
  κ (heterotropic cooperativity): 2
wild-type Efl1; [2]
  -TΔs: -7.0 kcal/mol
  Δg: -1.8 kcal/mol
  Δh: 5.2 kcal/mol
  κ (heterotropic cooperativity): 22.3
wild-type Efl1; +Mg^2+, 30 °C
  -TΔSb: 1.0 kcal/mol
  Kd: 125 µM
  ΔGb: -5.4 kcal/mol
  ΔHb: -6.4 ± 0.4 kcal/mol
wild-type Efl1; +Mg^2+
  ΔCpb: −560 ± 23 cal mol^−1 K^−1 and −560 cal mol^−1 K^−1
wild-type Efl1; −Mg^2+, 30 °C
  -TΔSb: 2.3 kcal/mol
  Kd: 250 µM
  ΔGb: -5.0 kcal/mol
  ΔHb: -7.3 ± 0.3 kcal/mol
wild-type Efl1; −Mg^2+
  ΔCpb: −700 ± 34 cal mol^−1 K^−1 and −700 cal mol^−1 K^−1
wild-type Efl1; wild-type Efl1
  fold by which Sdo1 favoured the interaction with GTP: 20–40 fold
Efl1 R1086Q•Sdo1; +Mg^2+, 25 °C
  -TΔSb: -5.1 kcal/mol
  ΔGb: -6.2 kcal/mol
  ΔHb: -1.1 ± 0.04 kcal/mol
  Kd: 29 ± 5 µM
Efl1 R1086Q•Sdo1; +Mg^2+, 30 °C
  -TΔSb: -2.9 kcal/mol
  Nconfres (number of residues changing conformation, absolute value): 36
  Nconfrotb (number of routable bonds changing conformation, absolute value): 47
  ΔCpconf: −375 cal mol^−1 K^−1
  ΔCprb: −25 cal mol^−1 K^−1
  ΔGb: -5.9 kcal/mol
  ΔHb: -3.0 ± 0.2 kcal/mol
  ΔSb: 9 cal mol^−1 K^−1
  ΔSconf: −78 cal mol^−1 K^−1
  ΔSsolv: 96 cal mol^−1 K^−1
  −ΔASAconf: 1683 Å^2
  Kd: 58 ± 7 µM
Efl1 R1086Q•Sdo1; +Mg^2+, 35 °C
  -TΔSb: -0.9 kcal/mol
  ΔGb: -6.0 kcal/mol
  ΔHb: -5.1 ± 0.4 kcal/mol
  Kd: 52 ± 7 µM
Efl1 R1086Q•Sdo1; +Mg^2+
  ΔCpb: −400 cal mol^−1 K^−1 and −400 ± 11 cal mol^−1 K^−1
Efl1 R1086Q•Sdo1; Efl1 R1086Q + Sdo1, 25 °C
  -TΔs: -2.6 kcal/mol
  Δg: 0.3 kcal/mol
  Δh: 2.9 kcal/mol
  κ (heterotropic cooperativity): 0.6
Efl1 R1086Q•Sdo1; Efl1 R1086Q + Sdo1, 30 °C
  -TΔs: -0.3 kcal/mol
  Δg: 0.6 kcal/mol
  Δh: 0.9 kcal/mol
  κ (heterotropic cooperativity): 0.3
Efl1 R1086Q•Sdo1; Efl1 R1086Q + Sdo1, 35 °C
  -TΔs: 1.9 kcal/mol
  Δg: 0.5 kcal/mol
  Δh: -1.4 kcal/mol
  κ (heterotropic cooperativity): 0.5
Efl1 R1086Q•Sdo1; −Mg^2+, 25 °C
  Kd: 17 ± 5 µM
  -TΔSb: -2.5 kcal/mol
  ΔGb: -6.5 kcal/mol
  ΔHb: -4.0 ± 0.2 kcal/mol
Efl1 R1086Q•Sdo1; −Mg^2+, 30 °C
  Kd: 23 ± 7 µM
  -TΔSb: -2.6 kcal/mol
  Nconfres (number of residues changing conformation, absolute value): 4
  Nconfrotb (number of routable bonds changing conformation, absolute value): 14
  ΔCpconf: 41 cal mol^−1 K^−1
  ΔGb: -6.5 kcal/mol
  ΔHb: -3.9 ± 0.1 kcal/mol
  ΔSb: 9 cal mol^−1 K^−1
  ΔSconf: 24 cal mol^−1 K^−1
  ΔSsolv: −7 cal mol^−1 K^−1
  −ΔASAconf: −184 Å^2
Efl1 R1086Q•Sdo1; −Mg^2+, 35 °C
  Kd: 25 ± 7 µM
  -TΔSb: -2.8 kcal/mol
  ΔGb: -6.5 kcal/mol
  ΔHb: -3.7 ± 0.4 kcal/mol
Efl1 R1086Q•Sdo1; absence of magnesium ions
  fold decrease in affinity of the preformed complex compared with the free enzyme: 2–4 times
Efl1 R1086Q•Sdo1; −Mg^2+
  ΔCpb: 30 cal mol^−1 K^−1 and 30 ± 6 cal mol^−1 K^−1
